pIC50: −log10 of the molar value.
Key:
[1] = system: inhibition of conditioned avoidance response induced by reserpine in rats; experiment: Inhibition of conditioned avoidance response induced by reserpine in rats; type: in vivo, Std-Wistar male rats
Description: Effect of the test samples on the inhibition of conditioned avoidance response induced by reserpine in rats
Std-Wistar male rats (8 to 9 week age) weighing of 270 to 300 g were fed under the conditions of 23±2° C., 60±10% R.H. and artificial lighting from 7 AM to 7 PM for a week, and then subjected to the test.
The test was carried out by using a shuttle box. The shuttle box used herein was a rectangular box, which was equipped with a buzzer for conditioned stimulus at the upper part and grids of 2 mm in diameter, for non-conditioned stimulus, at intervals of 1 cm on the floor, and divided into two equal sized compartments by a hurdle of 5 cm in height.
The schedule for inducing the conditioned avoidance response was controlled by a computer, and all the observed results of avoidance or escape response were recorded automatically.
The avoidance condition was carried out as follows:
After the conditioned stimulus of the buzzer with sound signal for 5 seconds, the non-conditioned stimulus of the foot shock was given for 5 seconds to rats. Each stimulus was stopped immediately, if the rat jumped over the hurdle to the other compartment during the conditioned or non-conditioned stimulus.
The above-mentioned rats were put on the trials for 25 times. Then the rats were given reserpine (1 mg/kg, intraperitoneally). The rats were tested for 15 times at the time of 18 to 20 hours after the reserpine administration, and then they were divided into several groups ([…]).
The test sample was dissolved in distilled water and administered orally to each group at 24 to 26 hours after the reserpine administration. For reference, distilled water as control sample, and amitriptyline and amantadine as test drugs were used.
At one hour after the test sample administration, the rats were put on the trials for 25 times and the conditioned avoidance responce was compared between the control group (distilled water administration), the test compound-administered group and the test drug-administered groups.

[2] = system: depletion of norepinephrine induced by 6-hydroxydopamine in rat heart; experiment: Depletion of norepinephrine induced by 6-hydroxydopamine in rat heart; type: in vivo, Std: Wistar male rats; conditions: 6-hydroxydopamine 20 mg/kg i.p., control 20 ± 4, non-treatment 425 ± 49, **p < 0.01
Description: Effect of the test samples on the depletion of norepinephrine induced by 6-hydroxydopamine in rat heart.
The test sample was administered orally to Std: Wistar male rats and after 30 minutes, 6-hydroxydopamine (20 mg/kg) was injected intraperitoneally.
At 16 hours after injection of 6-hydroxydopamine, the rats were killed. The whole heart was rapidly removed and homogenized in 0.05M perchloric acid with isoproterenol (10 mg/ml) as an internal standard. The homogenate was centrifuged and then the amount of norepinephrine in the supernatant was determined by means of high performance liquid chromatography with electrochemical detection.
Desipramine was used as the reference drug and distilled water was used as control sample.

[3] = system: sleeping time induced by thiopental; experiment: Sleeping time induced by thiopental; type: in vivo, Std: Wistar male rats; conditions: thiopental 40 mg/kg i.v., control 500.8 ± 12.0, **p < 0.01
Description: Effect of the test samples on the sleeping time induced by thiopental
The test sample was administered orally to Std: Wistar male rats, and at 60 minutes later, sodium thiopental (40 mg/kg) was injected intravenously.
The duration of sleeping time was determined as the time period between the injection of thiopental and return of the righting reflex.
Distilled water was used as control sample.

[4] = system: circling behavior in rats with unilateral substantia nigra lesions; experiment: Circling behavior in rats with unilateral substantia nigra lesions; type: in vivo, Std: Wistar male rats; conditions: 2 hours after, control 0.1 ± 0.4, **p < 0.01
Description: Effect of the test samples on circling behavior in rats with unilateral substantia nigra lesions
Std: Wistar male rats (8 heads/group) were used. The rat with unilateral substantia nigra lesions was made by injecting 8 μg/4 μl of 6-hydroxydopamine to the right side of substantia nigra.
The test sample was administered orally to the rat. At 2 hours later, the number of circling behavior per 10 minutes was counted.
Amantadine was used as the reference drug and distilled water was used as control sample.

[5] = system: depletion of serotonin induced by p-chloroamphetamine; experiment: Depletion of serotonin (5-HT) induced by p-chloroamphetamine (whole brain); type: in vivo, SlC:ddy mice; conditions: p-chloroamphetamine 10 mg/kg i.p., control 48 ± 6, **p < 0.01
Description: Effect of the test samples on the depletion of serotonin (hereinafter referred to as "5-HT") induced by p-chloroamphetamine
The test sample was administered orally to SlC:ddy made mice and after 60 minutes, p-chloroamphetamine (10 mg/kg) was injected intraperitoneally.
At 6 hours later, the mice were decapitated. The whole brain was rapidly removed and homogenized in 0.06M perchloric acid with N-methylserotonin (10 μg/ml) as an internal standard. The homogenate was centrifuged and then the amount of 5-HT in the supernatant was determined by high performance liquid chromatography with electrochemical detection.
Amitriptyline was used as the reference drug and distilled water was used as control sample.

[6] = system: re-uptake of ^3 H-dopamine; experiment: Re-uptake of 3H-dopamine in vitro (synaptosomes, P2 fraction of whole brain); type: biochemical, Std: Wistar strain male rat; conditions: Experiment I, rat brain synaptosomes, 37° C., 20 minutes
Description: Effect of the test samples on the re-uptake of ^3 H-dopamine in vitro
P2 fraction was prepared from the whole brain of Std: Wistar strain male rat. […] The obtained mixture was incubated at 37° C. for 20 minutes and then subjected to the suction filtration with Whatman GF/B filter paper.
The obtained filter paper was put in a vial containing 10 ml of toluene type scintillator and its radioactivity was measured by means of liquid scintillation counter. The amount of the specific re-uptake of ^3 H-dopamine was obtained by subtracting the amount of re-uptake at 0° C. as blank.

## CC(C)CC(N(C)C)C1(c2ccc(Cl)cc2)CCC1.Cl (stereo not shown) [Test compound, N,N-dimethyl-1-[1-(4-chlorophenyl)cyclobutyl]3-methylbutylamine hydrochloride]
[1]; 10 mg/kg oral, reserpine 1 mg/kg, control 2
  Conditioned avoidance response 1 hour after administration of the test sample: 82%
[1]; baseline before test sample, 10 mg/kg group
  Conditioned avoidance response before administration of reserpine: 90%
[1]; reserpine 1 mg/kg i.p., before test sample, 10 mg/kg group
  Conditioned avoidance response 18 to 20 hours after administration of reserpine: 2%
[2]; 0.625 mg/kg oral
  Amount of Norepinephrine: 169 ± 34 ng/g
[2]; 1.25 mg/kg oral
  Amount of Norepinephrine: 247 ± 49 ng/g
[2]; 2.5 mg/kg oral
  Amount of Norepinephrine: 306 ± 27 ng/g
[3]; 10 mg/kg oral
  Sleeping time: 345.6 ± 82.2 s
[3]; 30 mg/kg oral
  Sleeping time: 338.5 ± 43.7 s
[4]; 3 mg/kg oral
  Number of circling behavior per 10 min.: 3.0 ± 2.9 per 10 min.
[4]; 10 mg/kg oral
  Number of circling behavior per 10 min.: 5.1 ± 4.4 per 10 min.
[5]; 3 mg/kg oral
  Percentages of the amount of 5-HT in the treated group against the amount of 5-HT in the non-treated group: 64 ± 8%
[5]; 10 mg/kg oral
  Percentages of the amount of 5-HT in the treated group against the amount of 5-HT in the non-treated group: 103 ± 10%
[6]
  pIC50: 5.70

From US4939175A, “Use of N,N-dimethyl-1-[1-(4-chlorophenyl)cyclobutyl]-3-methylbutylamine” (priority 1988, dated 1990)
